From US9751869B2, “LXR modulators” (BRISTOL-MYERS SQUIBB COMPANY, priority 2013, dated 2017)

Target: T1, LXRβ (Homo sapiens, UniProt P55055)
T1 construct: Co-transfection expression plasmids, comprising full-length LXRα (pCMX-h LXRα or LXRβ (pCMX-hLXRβ)); expressed in transfected cells; host or cells: CV-1 African green monkey kidney cells, transient transfection with pCMX-hLXRβ
T1 sequence (P55055 1-460): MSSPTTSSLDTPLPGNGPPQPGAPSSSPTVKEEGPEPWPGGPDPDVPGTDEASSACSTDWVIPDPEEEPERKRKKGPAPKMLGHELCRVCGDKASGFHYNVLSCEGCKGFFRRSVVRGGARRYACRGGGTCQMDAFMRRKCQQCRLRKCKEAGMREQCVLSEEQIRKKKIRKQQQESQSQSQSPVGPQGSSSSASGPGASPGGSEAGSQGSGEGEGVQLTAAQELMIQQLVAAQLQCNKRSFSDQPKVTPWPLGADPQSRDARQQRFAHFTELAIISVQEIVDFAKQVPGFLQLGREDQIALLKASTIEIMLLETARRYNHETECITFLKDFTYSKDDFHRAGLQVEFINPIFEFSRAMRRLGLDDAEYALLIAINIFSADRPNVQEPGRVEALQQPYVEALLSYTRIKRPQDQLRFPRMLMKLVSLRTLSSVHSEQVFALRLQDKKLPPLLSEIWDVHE
T1 sequence (P19793 1-462 partner): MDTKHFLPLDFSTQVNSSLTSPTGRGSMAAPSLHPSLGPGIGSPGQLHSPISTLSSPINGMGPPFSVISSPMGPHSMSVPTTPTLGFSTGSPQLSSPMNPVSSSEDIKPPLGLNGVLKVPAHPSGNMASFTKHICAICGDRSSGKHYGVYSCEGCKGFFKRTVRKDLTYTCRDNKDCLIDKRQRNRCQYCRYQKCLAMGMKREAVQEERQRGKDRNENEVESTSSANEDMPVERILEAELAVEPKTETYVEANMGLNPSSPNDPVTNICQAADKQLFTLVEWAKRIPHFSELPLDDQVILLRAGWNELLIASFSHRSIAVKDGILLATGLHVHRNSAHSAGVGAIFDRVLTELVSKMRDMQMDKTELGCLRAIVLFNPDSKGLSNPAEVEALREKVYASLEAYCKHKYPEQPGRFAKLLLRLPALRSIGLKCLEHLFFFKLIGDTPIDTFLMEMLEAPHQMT
Assay: LXR/LXRE co-transfection assay (luciferase reporter) in CV-1 cells, LXRβ
Type: cell-based
Conditions: for EC50: CV-1 cells transfected with pCMX-hLXRβ and LXREx1-Tk-Luciferase, 20 hours incubation, read-out: LXRbeta agonism EC50; for Emax: CV-1 cells, relative to maximum response of high control N-(3-((4-fluorophenyl)-(naphthalene-2-sulfonyl)amino)propyl)-2,2-dimethylpropionamide, read-out: LXRbeta % EFFICACY
Method in brief: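 Luciferase read-out after 20 h compound treatment at 37 °C of CV-1 cells carrying transfected hLXRβ plus one-copy LXRE reporter, endogenous RXR partnering. Sigmoidal fit of 10-point half-log curves (4 wells each) gave EC50; % efficacy versus maximal response of the propionamide reference agonist.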

| Structure (SMILES) | EC50 [µM] | Emax [%] |
| --- | --- | --- |
| Cc1nc(-c2ccc(OC(F)(F)F)cc2)c(-c2cc(-c3cccc(S(C)(=O)=O)c3)ccc2-n2nc(C(F)(F)F)cc2C2CC2)o1 [Example 324, 5-(4-(5-cyclopropyl-3-(trifluoromethyl)-1H-pyrazol-1-yl)-3′-(methylsulfonyl)biphenyl-3-yl)-2-methyl-4-(4-(trifluoromethoxy)phenyl)oxazole] | 1.23 | 44 |
| Cc1nc(-c2cc(-c3cc(F)c(CO)c(S(C)(=O)=O)c3)ccc2-n2nc(C(F)(F)F)cc2C2CC2)c(-c2ccc(OC(F)(F)F)cc2)o1 [Example 415, (4′-(5-cyclopropyl-3-(trifluoromethyl)-1H-pyrazol-1-yl)-3-fluoro-3′-(2-methyl-5-(4-(trifluoromethoxy)phenyl)oxazol-4-yl)-5-(methylsulfonyl)biphenyl-4-yl)methanol] | 0.458 | 37 |
| Cn1nc(C(F)(F)C(=O)NC(C)(C)CO)cc1-c1ccc(-c2cc(F)c(CO)c(S(C)(=O)=O)c2)cc1-n1nncc1-c1ccc(OC(F)(F)F)cc1 [Example 27, 2,2-difluoro-2-(5-(3′-fluoro-4′-(hydroxymethyl)-5′-(methylsulfonyl)-3-(5-(4-(trifluoromethoxy)phenyl)-1H-1,2,3-triazol-1-yl)-[1,1′-biphenyl]-4-yl)-1-methyl-1H-pyrazol-3-yl)-N-(1-hydroxy-2-methylpropan-2-yl)acetamide] | 1.57 | 111 |
| Cc1cc(C(F)(F)F)nn1-c1ccc(-c2cccc(C(C)(C)C(N)=O)c2)cc1-n1nncc1-c1ccc(OC(F)(F)F)cc1 [Example 303, 2-methyl-2-{4′-[5-methyl-3-(trifluoromethyl)-1H-pyrazol-1-yl]-3′-(5-{4-[(trifluoromethyl)oxy]phenyl}-1H-1,2,3-triazol-1-yl)biphenyl-3-yl}propanamide] | 0.825 | 102 |
| Cc1nc(-c2ccc3c(c2)OC(F)(F)O3)c(-c2cc(-c3cc(F)c(CO)c(S(C)(=O)=O)c3)ccc2-n2ccc(C(N)=O)n2)o1 [Example 360, 1-(3-(4-(2,2-difluorobenzo[d][1,3]dioxol-5-yl)-2-methyloxazol-5-yl)-3-fluoro-4′-(hydroxymethyl)-5′-(methylsulfonyl)-[1,1′-biphenyl]-4-yl)-1H-pyrazole-3-carboxamide] | 0.263 | 12 |
| Cc1nc(-c2ccc(OC(F)(F)F)cc2)c(-c2cc(-c3cccc(C(C)(C)C(N)=O)c3)ccc2-n2ccc(C(F)(F)F)n2)o1 [Example 343, 2-methyl-2-(3′-(2-methyl-4-(4-(trifluoromethoxy)phenyl)oxazol-5-yl)-4′-(3-(trifluoromethyl)-1H-pyrazol-1-yl)biphenyl-3-yl) propanamide] | 0.149 | 74 |
| Cc1nc(-c2ccc(OC(F)(F)F)cc2)c(-c2cc(-c3cccc(S(N)(=O)=O)c3)ccc2-c2cc(C(F)(F)F)nn2C)o1 [Example 126, 4′-(1-methyl-3-(trifluoromethyl)-1H-pyrazol-5-yl)-3′-(2-methyl-4-(4-(trifluoromethoxy)phenyl)oxazol-5-yl)-[1,1′-biphenyl]-3-sulfonamide] | 0.299 | 85 |
| Cc1nc(-c2ccc3c(c2)OC(F)(F)O3)c(-c2cc(-c3cc(F)c(CO)c(S(C)(=O)=O)c3)ccc2-c2cc(C(F)(F)C(=O)NCCO)nn2C)o1 [Example 86, 2-(5-(3-(4-(2,2-difluorobenzo[d][1,3]dioxol-5-yl)-2-methyloxazol-5-yl)-3′-fluoro-4′-(hydroxymethyl)-5′-(methylsulfonyl)biphenyl-4-yl)-1-methyl-1H-pyrazol-3-yl)-2,2-difluoro-N-(2-hydroxyethyl)acetamide] | 0.715 | 37 |

The next compounds have a lower EC50 than those just listed; values first:

| EC50 [µM] | Emax [%] | Structure (SMILES) |
| --- | --- | --- |
| 0.087 | 48 | Cc1nc(-c2ccc3c(c2)OC(F)(F)O3)c(-c2cc(-c3cccc(S(C)(=O)=O)c3)ccc2-c2cc(C(C)OC(N)=O)nn2C)o1 (stereo not drawn) [Example 129, 1-(5-(3-(4-(2,2-difluorobenzo[d][1,3]dioxol-5-yl)-2-methyloxazol-5-yl)-3′-(methylsulfonyl)-[1,1′-biphenyl]-4-yl)-1-methyl-1H-pyrazol-3-yl)ethyl carbamate] |
| 0.062 | 77 | Cc1nc(-c2cc(F)c(OC(F)F)c(F)c2)c(-c2cc(-c3cccc(S(C)(=O)=O)c3)ccc2-n2ccc(C(F)(F)F)n2)o1 [Example 351, 4-(4-(difluoromethoxy)-3,5-difluorophenyl)-2-methyl-5-(3′-(methylsulfonyl)-4-(3-(trifluoromethyl)-1H-pyrazol-1-yl)biphenyl-3-yl)oxazole] |
| 0.06 | 64 | CS(=O)(=O)c1cc(-c2ccc(-n3ccc(C(F)(F)F)n3)c(-c3oc(C4CC4)nc3-c3ccc(OC(F)(F)F)cc3)c2)cc(F)c1CO [Example 339, (3′-(2-cyclopropyl-4-(4-(trifluoromethoxy)phenyl)oxazol-5-yl)-3-fluoro-5-(methylsulfonyl)-4′-(3-(trifluoromethyl)-1H-pyrazol-1-yl)biphenyl-4-yl)methanol] |
| 0.059 | 33 | Cc1nc(-c2ccc3c(c2)OC(F)(F)O3)c(-c2cc(-c3cc(F)c(CO)c(S(C)(=O)=O)c3)ccc2-c2cc(C(F)(F)C(=O)NC(C)C)nn2C)o1 [Example 82, 2-(5-(3-(4-(2,2-difluorobenzo[d][1,3]dioxol-5-yl)-2-methyloxazol-5-yl)-3′-fluoro-4′-(hydroxymethyl)-5′-(methylsulfonyl)biphenyl-4-yl)-1-methyl-1H-pyrazol-3-yl)-2,2-difluoro-N-isopropylacetamide] |
| 0.059 | 57 | Cc1nc(-c2ccc(OC(F)(F)F)cc2)c(-c2cc(-c3cc(F)c(CO)c(S(C)(=O)=O)c3)ccc2-n2nc(C(F)(F)F)cc2Cl)o1 [Example 348, (4′-(5-chloro-3-(trifluoromethyl)-1H-pyrazol-1-yl)-3-fluoro-3′-(2-methyl-4-(4-(trifluoromethoxy)phenyl)oxazol-5-yl)-5-(methylsulfonyl)biphenyl-4-yl)methanol] |
| 0.038 | 53 | Cc1nc(-c2cc(-c3cc(F)c(CO)c(S(C)(=O)=O)c3)ccc2-n2ccc(C(F)(F)F)n2)c(-c2ccc(Cl)cc2)o1 [Example 400, (3′-(5-(4-chlorophenyl)-2-methyloxazol-4-yl)-3-fluoro-5-(methylsulfonyl)-4′-(3-(trifluoromethyl)-1H-pyrazol-1-yl)biphenyl-4-yl)methanol] |
| 0.027 | 75 | Cc1nc(-c2cc(-c3cccc(S(C)(=O)=O)c3)ccc2-n2cc(Cl)c(C(F)(F)F)n2)c(-c2ccc(OC(F)(F)F)cc2)o1 [Example 310, 4-(4-(4-chloro-3-(trifluoromethyl)-1H-pyrazol-1-yl)-3′-(methylsulfonyl)-[1,1′-biphenyl]-3-yl)-2-methyl-5-(4-(trifluoromethoxy)phenyl)oxazole] |
| 0.024 | 112 | Cc1nc(-c2ccc3c(c2)OC(F)(F)O3)c(-c2cc(-c3cccc(S(C)(=O)=O)c3)ccc2-n2nc(C(F)(F)F)cc2C)o1 [Example 328, 4-(2,2-difluorobenzo[d][1,3]dioxol-5-yl)-2-methyl-5-(4-(5-methyl-3-(trifluoromethyl)-1H-pyrazol-1-yl)-3′-(methylsulfonyl)biphenyl-3-yl)oxazole] |
| 0.022 | 82 | Cn1nc(C(C)(F)F)cc1-c1ccc(-c2cc(F)c(CO)c(S(C)(=O)=O)c2)cc1-n1nncc1-c1ccc(OC(F)(F)F)cc1 [Example 21, {4′-[3-(1,1-difluoroethyl)-1-methyl-1H-pyrazol-5-yl]-3-fluoro-5-(methylsulfonyl)-3′-(5-{4-[(trifluoromethyl)oxy]phenyl}-1H-1,2,3-triazol-1-yl)biphenyl-4-yl}methanol] |
| 0.018 | 94 | Cc1nc(-c2ccc3c(c2)OC(F)(F)O3)c(-c2cc(-c3cc(F)c(CO)c(S(C)(=O)=O)c3)ccc2-c2cc(CC#N)nn2C)o1 [Example 58, 2-(5-(3-(4-(2,2-difluorobenzo[d][1,3]dioxol-5-yl)-2-methyloxazol-5-yl)-3′-fluoro-4′-(hydroxymethyl)-5′-(methylsulfonyl)-[1,1′-biphenyl]-4-yl)-1-methyl-1H-pyrazol-3-yl)acetonitrile] |
